Structures can show the parent of a compound that is named as a salt.

The target of the first assay is T1, recombinant human baculovirus-expressed GST-tagged FASN (Homo sapiens, UniProt P49327).
T1 construct: GST
T1 sequence (P49327 whole entry): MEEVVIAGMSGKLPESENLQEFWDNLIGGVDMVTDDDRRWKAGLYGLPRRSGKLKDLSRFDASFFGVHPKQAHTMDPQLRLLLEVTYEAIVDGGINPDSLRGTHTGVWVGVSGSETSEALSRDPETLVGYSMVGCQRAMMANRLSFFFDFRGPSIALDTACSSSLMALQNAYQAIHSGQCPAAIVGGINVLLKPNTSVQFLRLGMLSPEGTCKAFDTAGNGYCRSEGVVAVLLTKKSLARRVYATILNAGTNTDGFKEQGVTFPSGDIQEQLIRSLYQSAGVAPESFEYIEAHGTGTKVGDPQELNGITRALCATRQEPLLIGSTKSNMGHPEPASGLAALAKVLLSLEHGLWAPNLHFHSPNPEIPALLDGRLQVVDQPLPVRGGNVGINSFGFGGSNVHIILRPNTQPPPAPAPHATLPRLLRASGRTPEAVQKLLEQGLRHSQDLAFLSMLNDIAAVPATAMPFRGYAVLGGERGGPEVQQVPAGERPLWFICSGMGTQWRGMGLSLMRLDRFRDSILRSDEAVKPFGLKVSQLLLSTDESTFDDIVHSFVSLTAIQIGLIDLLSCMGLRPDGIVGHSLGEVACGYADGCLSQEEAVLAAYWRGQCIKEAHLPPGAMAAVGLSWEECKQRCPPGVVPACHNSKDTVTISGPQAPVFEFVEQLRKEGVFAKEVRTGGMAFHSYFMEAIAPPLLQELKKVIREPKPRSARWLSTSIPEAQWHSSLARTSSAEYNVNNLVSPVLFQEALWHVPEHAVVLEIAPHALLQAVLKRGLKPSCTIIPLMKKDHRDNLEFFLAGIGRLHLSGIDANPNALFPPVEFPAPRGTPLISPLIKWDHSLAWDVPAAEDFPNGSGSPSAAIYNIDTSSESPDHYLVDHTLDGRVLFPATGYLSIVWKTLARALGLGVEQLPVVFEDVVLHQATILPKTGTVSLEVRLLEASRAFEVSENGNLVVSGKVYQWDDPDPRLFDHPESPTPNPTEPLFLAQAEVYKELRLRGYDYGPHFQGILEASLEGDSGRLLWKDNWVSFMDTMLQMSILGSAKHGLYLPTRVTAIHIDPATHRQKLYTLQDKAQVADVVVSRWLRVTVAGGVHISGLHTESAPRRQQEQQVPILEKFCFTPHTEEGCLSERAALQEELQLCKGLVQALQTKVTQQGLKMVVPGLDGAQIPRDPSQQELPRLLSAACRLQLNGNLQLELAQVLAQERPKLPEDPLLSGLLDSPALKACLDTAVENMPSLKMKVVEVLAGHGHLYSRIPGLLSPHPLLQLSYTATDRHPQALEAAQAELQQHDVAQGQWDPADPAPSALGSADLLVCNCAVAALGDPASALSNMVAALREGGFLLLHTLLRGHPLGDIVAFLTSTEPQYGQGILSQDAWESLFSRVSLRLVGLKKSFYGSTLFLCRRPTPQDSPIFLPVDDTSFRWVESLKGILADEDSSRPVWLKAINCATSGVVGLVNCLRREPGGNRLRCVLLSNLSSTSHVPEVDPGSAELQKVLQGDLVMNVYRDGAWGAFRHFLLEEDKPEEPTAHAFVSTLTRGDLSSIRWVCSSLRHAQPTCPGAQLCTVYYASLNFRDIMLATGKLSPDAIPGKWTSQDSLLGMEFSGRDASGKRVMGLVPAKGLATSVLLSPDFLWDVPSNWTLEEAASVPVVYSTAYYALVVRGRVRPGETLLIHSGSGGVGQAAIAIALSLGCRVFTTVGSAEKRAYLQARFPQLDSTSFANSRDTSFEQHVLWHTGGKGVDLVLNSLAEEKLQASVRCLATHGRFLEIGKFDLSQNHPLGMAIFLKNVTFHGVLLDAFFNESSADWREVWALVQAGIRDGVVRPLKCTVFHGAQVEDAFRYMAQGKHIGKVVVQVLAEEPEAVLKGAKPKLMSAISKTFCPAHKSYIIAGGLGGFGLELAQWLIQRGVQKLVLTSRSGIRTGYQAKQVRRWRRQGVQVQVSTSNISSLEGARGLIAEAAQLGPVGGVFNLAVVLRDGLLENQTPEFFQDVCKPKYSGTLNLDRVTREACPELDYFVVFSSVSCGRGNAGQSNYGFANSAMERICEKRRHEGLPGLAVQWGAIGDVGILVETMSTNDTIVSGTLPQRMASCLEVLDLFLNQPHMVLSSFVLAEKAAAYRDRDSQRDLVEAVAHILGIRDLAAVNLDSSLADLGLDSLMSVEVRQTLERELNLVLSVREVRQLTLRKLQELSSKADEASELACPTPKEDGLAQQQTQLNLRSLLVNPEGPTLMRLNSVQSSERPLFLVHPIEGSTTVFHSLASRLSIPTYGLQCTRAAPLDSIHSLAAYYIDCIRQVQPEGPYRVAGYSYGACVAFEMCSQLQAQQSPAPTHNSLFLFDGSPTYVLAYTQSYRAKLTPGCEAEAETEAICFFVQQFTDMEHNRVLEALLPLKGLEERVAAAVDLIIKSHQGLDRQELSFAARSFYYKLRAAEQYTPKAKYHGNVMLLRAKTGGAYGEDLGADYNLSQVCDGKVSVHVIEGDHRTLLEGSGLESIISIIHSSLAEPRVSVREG
The experiment in a line: biochemical.
Conditions: not given
As for `CCC(=O)N1CCC2(CC1)OCc1cc(-c3ccc4c(C)nccc4c3)ccc1O2` [Example 21, 1-[6-(1-Methyl-6-isoquinolyl)spiro[4H-1,3-benzodioxine-2,4′-piperidine]-1′-yl]propan-1-one], the IC50 – broadly, the concentration that inhibits the measured activity by half – lay in the range of 1 to 99 nM.

Turning to `Cc1nccc2cc(-c3ccc4c(c3)COC3(CCN(C(=O)C5CC5)CC3)O4)ccc12` [Example 22, Cyclopropyl-[6-(1-methyl-6-isoquinolyl)spiro[4H-1,3-benzodioxine-2,4′-piperidine]-1′-yl]methanone], the IC50 lay within 1 to 99 nM.

Turning to `Cc1nccc2cc(-c3ccc4c(c3)COC3(CCN(C(=O)[C@H]5CCCO5)CC3)O4)ccc12` [Example 23, [6-(1-Methyl-6-isoquinolyl)spiro[4H-1,3-benzodioxine-2,4′-piperidine]-1′-yl]-[(2R)-tetrahydrofuran-2-yl]methanone], the IC50 lay in the range of 1 to 99 nM.

Take `CCOC(=O)N1CCC2(CC1)OCc1cc(-c3ccc4cccnc4c3)ccc1O2` [Example 30, Ethyl 6-(7-quinolyl)spiro[4H-1,3-benzodioxine-2,4′-piperidine]-1′-carboxylate]: the IC50 was 1 to 99 nM.

In the case of `CC(C)C(=O)N1CCC2(CC1)OCc1cc(-c3ccc4cccnc4c3)ccc1O2` [Example 31, 2-Methyl-1-[6-(7-quinolyl)spiro[4H-1,3-benzodioxine-2,4′-piperidine]-1′-yl]propan-1-one], the IC50 was 1 to 99 nM.

On to `O=C(C1CC1)N1CCC2(CC1)OCc1cc(-c3ccc4cccnc4c3)ccc1O2` [Example 32, Cyclopropyl-[6-(7-quinolyl)spiro[4H-1,3-benzodioxine-2,4′-piperidine]-1′-yl]methanone], for which the IC50 lay within 1 to 99 nM.

Turning to `CCC(=O)N1CCC2(CC1)OCc1cc(-c3cnc4ccccc4c3)ccc1O2` [Example 33, 1-[6-(3-Quinolyl)spiro[4H-1,3-benzodioxine-2,4′-piperidine]-1′-yl]propan-1-one], the concentration for half-maximal inhibition (IC50) was in the range of 1 to 99 nM.

For the compound `CC(C)C(=O)N1CCC2(CC1)OCc1cc(-c3cnc4ccccc4c3)ccc1O2` [Example 34, 2-Methyl-1-[6-(3-quinolyl)spiro[4H-1,3-benzodioxine-2,4′-piperidine]-1′-yl]propan-1-one], the IC50 lay in the range of 1 to 99 nM.

As for `CCOC(=O)N1CCC2(CC1)OCc1cc(-c3cnc4cccnc4c3)ccc1O2` [Example 35, Ethyl 6-(1,5-naphthyridin-3-yl)spiro[4H-1,3-benzodioxine-2,4′-piperidine]-1′-carboxylate], the IC50 fell in the range of 1000 to 10000 nM.

`CCC(=O)N1CCC2(CC1)OCc1cc(-c3cnc4cccnc4c3)ccc1O2` [Example 36, 1-[6-(1,5-Naphthyridin-3-yl)spiro[4H-1,3-benzodioxine-2,4′-piperidine]-1′-yl]propan-1-one]: the IC50 fell in the range of 1000 to 10000 nM.

For `O=C(C1CC1)N1CCC2(CC1)OCc1cc(-c3cnc4cccnc4c3)ccc1O2` [Example 37, Cyclopropyl-[6-(1,5-naphthyridin-3-yl)spiro[4H-1,3-benzodioxine-2,4′-piperidine]-1′-yl]methanone], the IC50 was in the range of 1000 to 10000 nM.

Staying with this assay, now noted: 5 nM FASN, 150 μM NADPH, 10 μM acetyl-CoA, 25 μM malonyl-CoA, 90 minutes incubation; read-out: IC50 data for Compounds of Formula I, Activity.
For the compound `Cc1nccc2cc(-c3ccc4c(c3)CCC3(CCN(C(=O)[C@H]5CCCO5)CC3)O4)ccc12` [Example 1, [6-(1-Methyl-6-isoquinolyl)spiro[chromane-2,4′-piperidine]-1′-yl]-[(2R)-tetrahydrofuran-2-yl]methanone, HCl], the IC50 is 1 to 99 nM.

On to `CCC(=O)N1CCC2(CCc3cc(-c4cnc5ccccc5c4C)ccc3O2)CC1` [Example 2, 1-[6-(4-Methyl-3-quinolyl)spiro[chromane-2,4′-piperidine]-1′-yl]propan-1-one, HCl], for which the IC50 fell in the range of 1 to 99 nM.

In the case of `Cc1c(-c2ccc3c(c2)CCC2(CCN(C(=O)C4CC4)CC2)O3)cnc2ccccc12` [Example 3, Cyclopropyl-[6-(4-methyl-3-quinolyl)spiro[chromane-2,4′-piperidine]-1′-yl]-methanone HCl], the IC50 was in the range of 1 to 99 nM.

As for `Cc1c(-c2ccc3c(c2)CCC2(CCN(C(=O)[C@H]4CCCO4)CC2)O3)cnc2ccccc12` [Example 4, [6-(4-Methyl-3-quinolyl)spiro[chromane-2,4′-piperidine]-1′-yl]-[(2R)-tetrahydrofuran-2-yl]methanone, HCl], the IC50 lay within 1 to 99 nM.

For the compound `O=C([C@H]1CCCO1)N1CCC2(CCc3cc(-c4ccc5c(C6CC6)nccc5c4)ccc3O2)CC1` [Example 5, [6-(1-Cyclopropyl-6-isoquinolyl)spiro[chromane-2,4′-piperidine]-1′-yl]-[(2R)-tetrahydrofuran-2-yl]methanone], the IC50 is 1 to 99 nM.

As to `CCC(=O)N1CCC2(CCc3cc(-c4ccc5cccnc5c4C)ccc3O2)CC1` [Example 6, 1-[6-(8-Methyl-7-quinolyl)spiro[chromane-2,4′-piperidine]-1′-yl]propan-1-one], the IC50 was in the range of 1 to 99 nM.

As to `Cc1c(-c2ccc3c(c2)CCC2(CCN(C(=O)C4CC4)CC2)O3)ccc2cccnc12` [Example 7, Cyclopropyl-[6-(8-methyl-7-quinolyl)spiro[chromane-2,4′-piperidine]-1′-yl]methanone, HCl], the IC50 is 1 to 99 nM.

For `Cc1c(-c2ccc3c(c2)CCC2(CCN(C(=O)[C@H]4CCCO4)CC2)O3)ccc2cccnc12` [Example 8, [6-(8-Methyl-7-quinolyl)spiro[chromane-2,4′-piperidine]-1′-yl]-[(2R)-tetrahydrofuran-2-yl]methanone, HCl], the IC50 lay in the range of 1 to 99 nM.

On to `CCC(=O)N1CCC2(CCc3cc(-c4ccc5cccnc5c4Cl)ccc3O2)CC1` [Example 9, 1-[6-(8-chloro-7-quinolyl)spiro[chromane-2,4′-piperidine]-1′-yl]propan-1-one], for which the IC50 was in the range of 1 to 99 nM.

`O=C(C1CC1)N1CCC2(CCc3cc(-c4ccc5cccnc5c4Cl)ccc3O2)CC1` [Example 10, [6-(8-Chloro-7-quinolyl)spiro[chromane-2,4′-piperidine]-1′-yl]-cyclopropyl-methanone, HCl]: the IC50 lay within 1 to 99 nM.

Consider `O=C([C@H]1CCCO1)N1CCC2(CCc3cc(-c4ccc5cccnc5c4Cl)ccc3O2)CC1` [Example 11, [6-(8-Chloro-7-quinolyl)spiro[chromane-2,4′-piperidine]-1′-yl]-[(2R)-tetrahydrofuran-2-yl]methanone, HCl], for which the IC50 is 1 to 99 nM.

In the case of `CCC(=O)N1CCC2(CCc3cc(-c4cnc5c(C)cccc5c4)ccc3O2)CC1` [Example 12, 1-[6-(8-Methyl-3-quinolyl)spiro[chromane-2,4′-piperidine]-1′-yl]propan-1-one], the IC50 was 1 to 99 nM.

As to `Cc1cccc2cc(-c3ccc4c(c3)CCC3(CCN(C(=O)C5CC5)CC3)O4)cnc12` [Example 13, Cyclopropyl-[6-(8-methyl-3-quinolyl)spiro[chromane-2,4′-piperidine]-1′-yl]-methanone, HCl], the IC50 was 100 to 999 nM.

Take `Cc1cccc2cc(-c3ccc4c(c3)CCC3(CCN(C(=O)[C@H]5CCCO5)CC3)O4)cnc12` [Example 14, [6-(8-Methyl-3-quinolyl)spiro[chromane-2,4′-piperidine]-1′-yl]-[(2R)-tetrahydrofuran-2-yl]methanone, HCl]: the IC50 lay within 1 to 99 nM.

For `COc1c(-c2ccc3c(c2)CCC2(CCN(C(=O)C4CC4)CC2)O3)ccc2cccnc12` [Example 15, Cyclopropyl-[6-(8-methoxy-7-quinolyl)spiro[chromane-2,4′-piperidine]-1′-yl]-methanone, HCl], the IC50 lay within 1 to 99 nM.

Turning to `COc1c(-c2ccc3c(c2)CCC2(CCN(C(=O)[C@H]4CCCO4)CC2)O3)ccc2cccnc12` [Example 16, [6-(8-Methoxy-7-quinolyl)spiro[chromane-2,4′-piperidine]-1′-yl]-[(2R)-tetra-hydrofuran-2-yl]methanone HCl], the IC50 lay within 1 to 99 nM.

`CCC(=O)N1CCC2(CCc3cc(-c4cc(C)c5ncccc5c4)ccc3O2)CC1` [Example 17, 1-[6-(8-Methyl-6-quinolyl)spiro[chromane-2,4′-piperidine]-1′-yl]propan-1-one, HCl]: the IC50 lay in the range of 100 to 999 nM.

Take `Cc1cc(-c2ccc3c(c2)CCC2(CCN(C(=O)C4CC4)CC2)O3)cc2cccnc12` [Example 18, Cyclopropyl-[6-(8-methyl-6-quinolyl)spiro[chromane-2,4′-piperidine]-1′-yl]methanone HCl]: the IC50 lay within 100 to 999 nM.

As to `CCC(=O)N1CCC2(CCc3cc(-c4ccc5cccnc5c4OC)ccc3O2)CC1` [Example 19, 1-[6-(8-Methoxy-7-quinolyl)spiro[chromane-2,4′-piperidine]-1′-yl]propan-1-one], the IC50 lay in the range of 1 to 99 nM.

For `Cc1cc(-c2ccc3c(c2)CCC2(CCN(C(=O)[C@H]4CCCO4)CC2)O3)cc2cccnc12` [Example 20, [6-(8-Methyl-6-quinolyl)spiro[chromane-2,4′-piperidine]-1′-yl]-[(2R)-tetrahydrofuran-2-yl]methanone], the IC50 lay in the range of 1 to 99 nM.

Regarding `CCC(=O)N1CCC2(CCc3cc(-c4ccc5c(C)nccc5c4)ccc3O2)CC1` [Example 24, 1-[6-(1-Methyl-6-isoquinolyl)spiro[chromane-2,4′-piperidine]-1′-yl]propan-1-one], the IC50 is 1 to 99 nM.

In the case of `Cc1nccc2cc(-c3ccc4c(c3)CCC3(CCN(C(=O)C5CC5)CC3)O4)ccc12` [Example 25, Cyclopropyl-[6-(1-methyl-6-isoquinolyl)spiro[chromane-2,4′-piperidine]-1′-yl]methanone], the IC50 lay in the range of 100 to 999 nM.

For `CCC(=O)N1CCC2(CCc3cc(-c4ccc5nccn5c4C)ccc3O2)CC1` [Example 26, 1-[6-(5-methylimidazo[1,2-a]pyridin-6-yl)spiro[chromane-2,4′-piperidine]-1′-yl]propan-1-one], the IC50 lay in the range of 100 to 999 nM.

On to `Cc1c(-c2ccc3c(c2)CCC2(CCN(C(=O)C4CC4)CC2)O3)ccc2nccn12` [Example 27, Cyclopropyl-[6-(5-methylimidazo[1,2-a]pyridin-6-yl)spiro[chromane-2,4′-piperidine]-1′-yl]methanone], for which the IC50 lay in the range of 100 to 999 nM.

For the compound `Cc1c(-c2ccc3c(c2)CCC2(CCN(C(=O)[C@H]4CCCO4)CC2)O3)ccc2nccn12` [Example 28, [6-(5-Methylimidazo[1,2-a]pyridin-6-yl)spiro[chromane-2,4′-piperidine]-1′-yl]-[(2R)-tetrahydrofuran-2-yl]methanone], the IC50 lay in the range of 1 to 99 nM.
